Measurements from US5064947A (priority 1990, dated 1991).
Read-outs that look alike come from different tables or passages of the source.

Experiments:
[1] = molecular target: T1, adenosine A-2 receptors (Rattus norvegicus, UniProt P30543); assay: Affinity for brain adenosine A-2 receptors ([3H]NECA displacement, rat brain striatum membranes); assay type: binding
T1 construct: from tissue; host or cells: striatal membranes of young male rats (C-D strain, from Charles River)
Method: The pellet is finally resuspended in 40 vol. of 50mM Tris-HCl (pH 7.7) per gram of original wet weight of tissue.
Incubations are carried out at 25° C. for 60 minutes. Each tube is filtered through GF/B glass fiber filters using a vacuum. The filters are rinsed two times with 5 ml of the ice-cold buffer. […] The filters are counted by liquid scintillation spectrometry.
Specific binding of [3H]NECA is measured as the excess over blanks run in the presence of 100 μM 2-chloroadenosine. […] Specific binding to membranes is about 50% of the total bound.

[2] = test system: A-2 receptors; details: cited from earlier work
[3] = molecular target: T2, Adenosine A-1 receptor (Rattus norvegicus, UniProt P25099)
T2 sequence (P25099 1-326): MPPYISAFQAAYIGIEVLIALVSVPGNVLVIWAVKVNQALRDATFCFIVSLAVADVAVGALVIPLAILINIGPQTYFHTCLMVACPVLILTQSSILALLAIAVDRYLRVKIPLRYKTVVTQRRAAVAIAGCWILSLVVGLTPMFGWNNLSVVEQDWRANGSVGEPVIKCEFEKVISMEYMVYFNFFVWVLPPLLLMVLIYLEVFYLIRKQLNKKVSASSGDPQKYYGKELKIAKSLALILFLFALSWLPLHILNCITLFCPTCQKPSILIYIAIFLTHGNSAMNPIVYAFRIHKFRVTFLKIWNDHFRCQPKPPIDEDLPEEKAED

[4] = test system: A-1 receptors; details: cited from earlier work
[5] = in vivo; cited from earlier work
[6] = ratio of A-2 Ki to A-1 Ki (selectivity)

T1 sequence (P30543 whole entry): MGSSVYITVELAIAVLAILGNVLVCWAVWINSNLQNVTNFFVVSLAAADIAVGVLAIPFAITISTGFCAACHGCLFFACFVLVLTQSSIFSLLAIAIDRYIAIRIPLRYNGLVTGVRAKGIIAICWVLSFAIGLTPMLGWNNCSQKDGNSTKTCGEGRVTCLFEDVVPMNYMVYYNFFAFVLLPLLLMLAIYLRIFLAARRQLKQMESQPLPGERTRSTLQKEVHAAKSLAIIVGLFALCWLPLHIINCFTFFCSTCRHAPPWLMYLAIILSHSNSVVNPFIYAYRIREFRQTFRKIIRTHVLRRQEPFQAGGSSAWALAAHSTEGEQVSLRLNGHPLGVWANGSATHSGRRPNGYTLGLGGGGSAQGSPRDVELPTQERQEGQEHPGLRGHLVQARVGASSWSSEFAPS

Compound: OC[C@H]1O[C@@H](n2cnc3c2N=CN2C[C@@H](Cc4ccccc4)N=C32)[C@H](O)[C@@H]1O [Compound 14, (R)-7,8-dihydro-3-(β-D-ribofuranosyl)-8-(phenylmethyl)-3H-diimidazo[1,2-c:4',5'-e]pyrimidine]
- A-2 Ki/A-1 Ki [1]: 5.50

Compound: OC[C@H]1O[C@@H](n2cnc3c2N=CN2C[C@H](Cc4ccccc4)N=C32)[C@H](O)[C@@H]1O [Compound 13, (S)-7,8-dihydro-3-(β-D-ribofuranosyl)-8-(phenylmethyl)-3H-diimidazo[1,2-c:4',5'-e]pyrimidine]
- A-2 Ki/A-1 Ki [1]: 1.70

Compound: CCNC(=O)[C@H]1O[C@@H](n2cnc3c(N)ncnc32)[C@H](O)[C@@H]1O [NECA, N-5'-ethylcarboxamidoadenosine]
- order of potency at A-2 receptors [2]: NECA>2-chloroadenosine>R-PIA>CHA

Compound: C1=Nc2c(cnn2-c2ccccc2)C2=N[C@H](Cc3ccccc3)CN12 [Compound 3, (R)-2,7-dihydro-7-phenyl-2-(phenylmethyl)-3H-imidazo[1,2-c]pyrazolo[4,3-e]pyrimidine]
- A-2 Ki/A-1 Ki [1, 6]: 13.20

Compound: CCCOC1=Nc2c(ncn2-c2ccccc2)C2=N[C@@H](Cc3ccccc3)CN12 [Compound 12, (S)-7,8-dihydro-3-phenyl-8-(phenylmethyl)-5-propoxy-3H-diimidazo[1,2-c:4',5'-e]pyrimidine]
- Ki ([1]; [3H]NECA, rat brain striatum membranes, 25° C., 60 minutes, read-out: A-2 Receptor Ki): 1.6 µM
- A-2 Ki/A-1 Ki [1, 6]: 0.18
- Ki [3]: 9 µM

Compound: CCCn1c(=O)c2[nH]c(-c3ccc(OCC(=O)O)cc3)nc2n(CCC)c1=O [XCC, carboxylic acid congener of 8-phenyl-1,3-dipropyl-xanthine]
- adenosine receptor selectivity ([4]; A-1 vs A-2, in vitro): non-selective

Compound: CCCOC1=Nc2c(cnn2-c2ccccc2)C2=N[C@@H](Cc3ccccc3)CN12 [Compound 2, (S)-2,7-dihydro-7-phenyl-2-(phenylmethyl)-5-propoxy-3H-imidazo[1,2-c]pyrazolo[4,3-e]pyrimidine]
- A-2 Ki/A-1 Ki [1, 6]: 0.18

Compound: Nc1nc(Cl)nc2c1ncn2[C@@H]1O[C@H](CO)[C@@H](O)[C@H]1O [2-chloroadenosine]
- order of potency at A-2 receptors [2]: NECA>2-chloroadenosine>R-PIA>CHA

Compound: CCCOC1=Nc2c(cnn2-c2ccccc2)C2=N[C@H](C)[C@@H](c3ccccc3)N12 [Compound 7, (2R-trans)-2,7-dihydro-2-methyl-3,7-diphenyl-5-propoxy-3H-Imidazo[1,2-c]pyrazolo[4,3-e]pyrimidine]
- A-2 Ki/A-1 Ki [1, 6]: 1.17

Compound: CCCn1c(=O)c2[nH]c(-c3ccc(OCC(=O)NCCN)cc3)nc2n(CCC)c1=O [XAC, amino congener of 8-phenyl-1,3-dipropyl-xanthine]
- antagonizing the effects of adenosine analogs on heart rate versus blood pressure [5]: much more potent in antagonizing the effects of adenosine analogs on heart rate than on blood pressure
- higher affinity for A-1 adenosine receptors vs A-2 ([4]; A-1 brain membranes versus A-2 brain slice assay): 40 fold

Compound: C1=Nc2c(ncn2-c2ccccc2)C2=N[C@H](Cc3ccccc3)CN12 [Compound 6, (R)-7,8-dihydro-3-phenyl-8-(phenylmethyl)-3H-diimidazo[1,2-c:4',5'-e]pyrimidine]
- A-2 Ki/A-1 Ki [1]: 16.40
